# Measurements reported in article PMC11036874, “In vitro characterization of [^125I]HY-3-24, a selective ligand for the dopamine D3 receptor” (Frontiers in Neuroscience, 2024).
# Read-outs that look alike come from different tables or passages of the source.
# Columns and labels:
# D2 receptors = target: D2 receptors; set-up: method as in Kulagowski et al., 1996; conditions: ref Kulagowski et al., 1996; read-out: Ki for displacing [3H]spiperone to D2 receptors; cited from earlier work
# D3R [1] = target: T1, D3R (Rattus norvegicus, UniProt P19020); assay: D3R and D2R blocking studies of [125I]HY-3-24 in rat striatal homogenates; format: binding; conditions: blocker at 2.4 nM, rat striatal membranes, RT 2 h
# T1 construct: The ventral striatum was isolated by dissection on ice; tissue Innovative research, Inc; host or cells: Sprague–Dawley rat brain: ventral striatal homogenates; frozen brain sections
# Protocol: For the D3R and D2R blocking studies, [^125I]HY-3-24 (0.3 nM) was mixed with 100 μg of protein and incubated at RT for 2 h in the presence or absence of 30 nM cold HY-3-24, 100 nM SB-277-011A, 10 nM SB-277-011A, or 2.4 nM L-741,626. [^125I]HY-3-24 bound protein was collected by fast filtration methods (GF/C filter soaked in 1% PEI, Brandel Inc., Maryland, United States) and counted using gamma counter (PerkinElmer, Massachusetts, United States).
# D3R [2] = target: T1, D3R; assay: Competition binding study of [125I]HY-3-24 in rat ventral striatal membranes; conditions: for fold lower affinity/potency for displacing [125I]HY-3-24 relative to eticlopride: rat ventral striatum
# Protocol: (§1) Frozen rat brains (Sprague–Dawley rat, Male, 6–8 weeks old) were obtained from Innovative research, Inc. (Novi, Michigan, United States). The ventral striatum was isolated by dissection on ice. Cold homogenization buffer (HB, 20 mM Tris–HCl, 5 mM MgCl2, 1 mM EDTA, pH7.5) was added and the tissue homogenized by mortar and pestle on ice. Homogenized tissue was centrifuged at 10,000 × g, 4°C for 30 min. Supernatant was removed and pellet was mixed with cold HB buffer by vortex. This process was repeated two times to get rat ventral striatal homogenates; and protein amount was determined using a BCA protein assay kit. Homogenized tissue homogenates were stored at −80°C until use.
# 10 μM of (+)-butaclamol was used for determination of non-specific binding. The final reaction volume was 200 μL and the assay mixture was incubated at RT for 60 min. […] The filter was washed with cold buffer (3 times) and counted by gamma counter. The value of Ki was calculated using nonlinear regression analysis by PRISM 9 and the results was presented mean ± SD by three individual experiments.
# D3R [3] = target: T2, D3R (Macaca mulatta, UniProt F6U709); assay: In vitro autoradiography, non-human primate brain sections; format: binding; conditions: rhesus monkey brain sections
# T2 construct: in vitro autoradiography using Sprague–Dawley rat and non-human primate brains; from tissue; host or cells: non-human primate brain sections
# Protocol: (§2) Regional brain distribution of [^125I]HY-3-24 binding was determined by in vitro autoradiography using Sprague–Dawley rat and non-human primate brains. A Cryotome (Leica Biosystems, Germany) was used for sectioning frozen brains by coronal and/or sagittal direction, and the thickness of tissue was 10–20 μm. Sectioned slides were stored at −80°C until use. The adjacent brain slides were warmed to RT for 20 min, the slides were incubated with cold reaction buffer (50 mM Tris–HCl, 150 mM NaCl, 1 mM EDTA, pH 7.5) at RT for 10 min, and the buffer was discarded. The slides were then incubated with […] of [^125I]HY-3-24 at RT for 1 h. For non-specific binding, 2 μM of (+)-butaclamol was used. After incubation, the slides were washed with cold buffer (three times) for 2 min, then air dried at RT for 10 min. Radiolabeled brain tissues were exposed to BAS imaging plate (Fujifilm, Tokyo, Japan) for 3 days, and the result was digitized by Typhoon FLA 7000 (GE Healthcare, Illinois, United States) and analyzed by Multi Gauge V3.0. For blocking studies comparing (+)-butaclamol and raclopride, brain slides were initially pretreated with blocking agent (50 nM) for 1 h. prior to the addition of the radioligand (0.3 nM).
# D3R [4] = target: T1, D3R; assay: In vitro autoradiography, rat brain sections; format: binding
# Protocol: as §2
# [5] = Distribution coefficient (LogD7.4), shake-flask; format: physicochemical; conditions: n-octanol / 0.01 M phosphate buffer pH 7.4, shake-flask, quintuplicate
# Protocol: In a separatory funnel, 10 mL of n-octanol and 20 mL of 0.01 M phosphate buffer (pH 7.4) solution were placed and 5 μL of [^125I]HY-3-24 (700 kBq) was added. The mixture was vigorously shaken for 1 min followed by standing for 20 min to completely separate the layers. Five 1 mL of aliquots were taken from each phase and the radioactivity of each fraction was measured by a Wizard2 Automatic Gamma Counter. LogD7.4 was measured in quintuplicate and calculated as the logarithm of the ratio of radioactivity in organic phase to that in water phase.
# D3R [6] = target: T1, D3R; assay: Saturation/equilibrium binding of [125I]HY-3-24 on rat ventral striatum
# Protocol: as §1
# To confirm saturation time of [^125I]HY-3-24 with prepared membrane, [^125I]HY-3-24 (~0.3 nM) was mixed with 100 μg of membrane and incubated at RT up to 2 h. [^125I]HY-3-24 bound protein was collected by fast filtration methods (CF/C filter, Brandel Inc., Maryland, United States) and counted using gamma counter (PerkinElmer, Massachusetts, United States).
# For saturation binding study, [^125I]HY-3-24 (0.001–1.6 nM concentration range) was incubated with 100 μg/100 μL of homogenized protein at RT for 60 min. Non-specific binding was defined the presence of 10 μM (+)-butaclamol, and total reaction volume was 200 μL. The reaction was finished by adding cold buffer (10 mM Tris–HCl, 150 mM NaCl, pH 7.5), and [^125I]HY-3-24 bound protein was filtered by 24-well harvester (Brandel Inc., Maryland, United States) through CF/C filter soaked with 1% PEI, and washed three times with 4 mL cold buffer. The collected filter was counted by gamma counter and data were analyzed by PRISM 9. The values of Bmax and Kd were obtained by three individual experiments.
# hD3R [7] = target: hD3R; set-up: method as in Kim et al., 2023; conditions: ref Kim et al., 2023; cited from earlier work
# hD2R [8] = target: hD2R; set-up: method as in Kim et al., 2023; conditions: ref Kim et al., 2023; cited from earlier work
# hD3R [9] = target: hD3R; set-up: method as in Yang et al., 2000; conditions: ref Yang et al., 2000; cited from earlier work
# hD2R [10] = target: hD2R; set-up: method as in Yang et al., 2000; conditions: ref Yang et al., 2000; cited from earlier work
# [11] = rat ventral striatal homogenates, 0.2–0.3 nM [125I]HY-3-24, RT 60 min, mean ± SD of three experiments, read-out: Ki for inhibiting [125I]HY-3-24 binding
# [12] = rat brain coronal sections, ~0.3 nM radioligand
# T1 sequence (P19020 whole entry): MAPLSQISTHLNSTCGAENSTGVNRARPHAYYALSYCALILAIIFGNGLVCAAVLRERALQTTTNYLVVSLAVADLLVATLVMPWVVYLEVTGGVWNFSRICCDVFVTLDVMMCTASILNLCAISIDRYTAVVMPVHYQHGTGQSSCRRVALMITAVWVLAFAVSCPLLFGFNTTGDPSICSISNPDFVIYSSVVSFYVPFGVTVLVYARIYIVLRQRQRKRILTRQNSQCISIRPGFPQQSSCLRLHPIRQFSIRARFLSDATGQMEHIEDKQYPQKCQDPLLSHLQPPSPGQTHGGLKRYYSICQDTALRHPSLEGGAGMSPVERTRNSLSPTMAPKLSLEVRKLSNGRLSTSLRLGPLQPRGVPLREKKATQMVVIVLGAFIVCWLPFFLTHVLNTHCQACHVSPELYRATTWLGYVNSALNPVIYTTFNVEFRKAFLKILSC
# T2 sequence (F6U709 1-400): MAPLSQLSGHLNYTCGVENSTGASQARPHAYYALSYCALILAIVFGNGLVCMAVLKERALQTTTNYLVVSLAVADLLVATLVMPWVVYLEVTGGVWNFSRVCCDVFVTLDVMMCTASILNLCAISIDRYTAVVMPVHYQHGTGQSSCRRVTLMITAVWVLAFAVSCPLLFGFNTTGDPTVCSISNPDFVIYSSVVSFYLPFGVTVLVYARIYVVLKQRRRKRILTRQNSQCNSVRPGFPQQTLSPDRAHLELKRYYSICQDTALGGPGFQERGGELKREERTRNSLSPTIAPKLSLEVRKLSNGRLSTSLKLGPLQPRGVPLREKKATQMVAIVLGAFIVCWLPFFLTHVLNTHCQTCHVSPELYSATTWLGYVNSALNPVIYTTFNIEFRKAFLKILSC
smiles,measurement,setting,value
"OC1(c2ccc(Cl)cc2)CCN(Cc2c[nH]c3ccccc23)CC1 [L-741,626]",Ki,D2 receptors,2.4 nM
same,displacement of [125I]HY-3-24 binding,D3R [1],no displacement
CCN1CCC[C@H]1CNC(=O)c1c(O)c(Cl)cc(Cl)c1OC [Raclopride],Ki,D3R [2]; [11],2.51 ± 0.9 nM
same,fold lower affinity/potency for displacing [125I]HY-3-24 relative to eticlopride,D3R [2],10 fold
CCCN1CCO[C@@H]2c3cc(O)ccc3CC[C@H]21 [(+)-PHNO],Ki,D3R [2]; [11],1.72 ± 0.46 nM
CCc1cc(Cl)c(OC)c(C(=O)NC[C@@H]2CCCN2CC)c1O [Eticlopride],Ki,D3R [2],0.25 ± 0.02 nM
CCN(CCCNC(=O)c1ccc(-c2ccncc2)cc1)CCNC(=O)c1cc([125I])cc(OC)c1OC [[^125I]HY-3-24],non-specific binding,D3R [3]; blocking with 2 μM (+)-butaclamol,low level of non-specific binding
same,"binding in caudate nucleus (Cd), putamen (Pu), NAc, and ICj",D3R [3]; ~0.1 nM radioligand,high density
same,"binding in NAc including ICjM, and ICj",D3R [4]; [12],High binding
same,binding in striatum,D3R [4]; [12],lower amount of binding
same,displaceability by (+)-butaclamol and raclopride,"D3R [4]; rat brain slices, blocking agents 50 nM, radioligand ~0.3 nM",fully displaceable
same,logD at 1 min,[5],2.41 ± 0.01
same,percentage of specific binding,D3R [6]; rat ventral striatal membranes,over 70%
same,"non-specific binding, of total binding","D3R [6]; rat ventral striatal membranes, 10 μM (+)-butaclamol",less than 10%
same,Kd,"D3R [6]; rat ventral striatal membranes, RT 60 min, three experiments",0.34 ± 0.22 nM
same,Bmax,"D3R [6]; rat ventral striatal membranes, fmol/mg of protein, three experiments",38.91 ± 2.39 fmol/mg
same,time to binding equilibrium,"D3R [6]; ~0.3 nM radioligand, 100 μg protein, RT, persisted until 2 h",about 30 min
CCN(CCCNC(=O)c1ccc(-c2ccncc2)cc1)CCNC(=O)c1cc(Br)cc(OC)c1OC [compound 6],Ki,hD3R [7],1.1 ± 0.1 nM
same,Ki,hD2R [8],107 ± 5 nM
CN1CCc2cc(Cl)c(O)cc2[C@@H](c2ccccc2)C1 [SCH23390],Ki,D3R [2]; [11],215 ± 61.7 nM
same,fold lower affinity/potency for displacing [125I]HY-3-24 relative to eticlopride,D3R [2],"1,000 fold"
CCN(CC)CCNC(=O)c1cc(Cl)c(N)cc1OC [Metoclopramide],Ki,hD3R [9],27 ± 3 nM
same,Ki,hD2R [10],21 ± 1 nM
CCCN1CCO[C@@H]2c3cc(O)ccc3OC[C@H]21 [PD128907],Ki,D3R [2]; [11],7.65 ± 1.15 nM
